Experimental data: US9457033B2, “Steroid alkaloids and uses thereof as antimicrobial agents against electron transport-deficient microbes and as potentiators for antimicrobial agents against pathogenic bacteria” (priority 2011, dated 2016)
Converted amounts (≈) assume the structure as drawn.

What was measured:
[1] = test system: S. aureus CF1A-L (normal strain); experiment: MIC, microdilution in BHI 48 h; format: cell-based, Staphylococcus aureus
S. aureus SCV CF1D-S = experiment: MIC, microdilution in BHI 48 h; format: cell-based, Staphylococcus aureus
S. aureus SCV CF07-S = experiment: MIC, microdilution in BHI 48 h (Examples 1, 3); format: cell-based, Staphylococcus aureus
[2] = test system: S. aureus SCVs (NewbouldΔhemB, CF07-S and CF1D-S); experiment: MIC, microdilution in BHI 48 h, summary for SCVs; format: cell-based, Staphylococcus aureus; details: all SCVs of Table 1
[3] = test system: S. aureus CF07-L (normal strain); experiment: MIC, microdilution in BHI 48 h (Examples 1, 3); format: cell-based, Staphylococcus aureus
[4] = test system: S. aureus SCV NewbouldΔhemB; experiment: MIC, microdilution in BHI 48 h; format: cell-based, Staphylococcus aureus
S. aureus ATCC 29213 [5] = experiment: MIC, microdilution in BHI 48 h (Examples 1, 3); format: cell-based, Staphylococcus aureus
[6] = test system: S. aureus Newbould (normal strain); experiment: MIC, microdilution in BHI 48 h; format: cell-based, Staphylococcus aureus
S. aureus CF9A-L = experiment: MIC, microdilution in CAMHB 24 h; format: cell-based, Staphylococcus aureus; details: Staphylococcus aureus, MRSA
S. aureus Newbould = experiment: MIC, microdilution in CAMHB 24 h; format: cell-based, Staphylococcus aureus; details: Staphylococcus aureus
S. aureus CF2A-L = experiment: MIC, microdilution in CAMHB 24 h; format: cell-based; details: Staphylococcus aureus, CF2AL
S. aureus MRSA COL = experiment: MIC, microdilution in CAMHB 24 h; format: cell-based, Staphylococcus aureus; details: Staphylococcus aureus, MRSA
S. aureus 8325-4 = experiment: MIC, microdilution in CAMHB 24 h; format: cell-based, Staphylococcus aureus; details: Staphylococcus aureus, 83254
S. aureus N315 = experiment: microbe, parasite or virus in culture; format: cell-based, Staphylococcus aureus; details: Staphylococcus aureus, MRSA
S. aureus Sa220c = experiment: MIC, microdilution in CAMHB 24 h; format: cell-based, Staphylococcus aureus; details: Staphylococcus aureus, MRSA
S. aureus CF35A-L = experiment: MIC, microdilution in CAMHB 24 h; format: cell-based, Staphylococcus aureus; details: Staphylococcus aureus, MRSA
S. aureus ATCC BAA-41 = experiment: MIC, microdilution in CAMHB 24 h; format: cell-based, Staphylococcus aureus; details: Staphylococcus aureus, ATCC BAA-41 / MRSA
[7] = test system: protein, DNA, RNA and cell wall peptidoglycan biosynthesis in ATCC 29213; experiment: Macromolecular biosynthesis assay, incorporation of radiolabeled precursors; format: cell-based, Staphylococcus aureus; details: control antibiotics at approximately 4×MIC; FIG. 3A
S. aureus ATCC 43300 = experiment: MIC, microdilution in CAMHB 24 h; format: cell-based, Staphylococcus aureus; details: Staphylococcus aureus, ATCC 43300 / MRSA
S. aureus ATCC 29213 [8] = experiment: MIC, microdilution in CAMHB 24 h, with or without tomatidine/compound; format: cell-based, Staphylococcus aureus; details: for MIC: Staphylococcus aureus
S. aureus CF7A-L = experiment: MIC, microdilution in CAMHB 24 h; format: cell-based, Staphylococcus aureus; details: Staphylococcus aureus, MRSA
S. aureus Newman = experiment: MIC, microdilution in CAMHB 24 h; format: cell-based, Staphylococcus aureus; details: Staphylococcus aureus, NEWMAN
S. aureus ATCC 29213 [9] = experiment: MICs of control antibiotics for macromolecular biosynthesis assays; format: cell-based; details: Staphylococcus aureus, ATCC29213
S. aureus CF4B-L = experiment: MIC, microdilution in CAMHB 24 h; format: cell-based, Staphylococcus aureus; details: Staphylococcus aureus, CF4BL
S. aureus CF8E-L = experiment: MIC, microdilution in CAMHB 24 h; format: cell-based, Staphylococcus aureus; details: Staphylococcus aureus, CF8EL
S. aureus Sa228c = experiment: MIC, microdilution in CAMHB 24 h; format: cell-based, Staphylococcus aureus; details: Staphylococcus aureus, MRSA
S. aureus CF6B-L = experiment: MIC, microdilution in CAMHB 24 h; format: cell-based, Staphylococcus aureus; details: Staphylococcus aureus, CF6BL
S. aureus MA078038 = experiment: MIC, microdilution in CAMHB 24 h; format: cell-based, Staphylococcus aureus; details: Staphylococcus aureus, MRSA
S. aureus SHY97-3906 = experiment: MIC, microdilution in CAMHB 24 h; format: cell-based, Staphylococcus aureus; details: Staphylococcus aureus, SHY973906
S. aureus CF1A-L = experiment: MIC, microdilution in CAMHB 24 h; format: cell-based, Staphylococcus aureus; details: Staphylococcus aureus, CF1AL
S. aureus Mu50 = experiment: MIC, microdilution in CAMHB 24 h; format: cell-based, Staphylococcus aureus; details: Staphylococcus aureus, MRSA / VISA
S. aureus CF07-L = experiment: MIC, microdilution in CAMHB 24 h; format: cell-based, Staphylococcus aureus; details: Staphylococcus aureus, CF07L

Compound: C[C@H]1CC[C@]2(NC1)O[C@H]1C[C@H]3[C@@H]4CC[C@H]5C[C@@H](O[C@@H]6O[C@H](CO)[C@H](O[C@@H]7O[C@H](CO)[C@@H](O)[C@H](O[C@@H]8OC[C@@H](O)[C@H](O)[C@H]8O)[C@H]7O[C@@H]7O[C@H](CO)[C@@H](O)[C@H](O)[C@H]7O)[C@H](O)[C@H]6O)CC[C@]5(C)[C@H]4CC[C@]3(C)[C@H]1[C@@H]2C [Tomatine, tomatine]
- MIC ([1]; CF1A-L, normal strain): >16 µg/mL
- MIC (S. aureus SCV CF1D-S; CF1D-S, SCV): >16 µg/mL
- MIC (S. aureus SCV CF07-S; CF07-S + HQNO at 20 μg/ml): >16 µg/mL
- MIC (S. aureus SCV CF07-S; CF07-S, SCV): >16 µg/mL
- MIC (S. aureus SCV CF07-S; CF07-S, without HQNO): >16 µg/mL
- MIC against all SCVs [2]: no MIC was observed
- MIC ([3]; CF07-L + HQNO at 20 μg/ml): >16 µg/mL
- MIC ([3]; CF07-L, normal strain): >16 µg/mL
- MIC ([3]; CF07-L, without HQNO): >16 µg/mL
- MIC ([4]; NewbouldΔhemB, SCV): >16 µg/mL
- MIC (S. aureus ATCC 29213 [5]; ATCC 29213 + HQNO at 20 μg/ml): >16 µg/mL
- MIC (S. aureus ATCC 29213 [5]; ATCC 29213, without HQNO): >16 µg/mL
- MIC (S. aureus ATCC 29213 [5]; ATCC 29213 in BHI): >16 µg/mL
- MIC (S. aureus ATCC 29213 [5]; ATCC 29213 in MHBCA): >16 µg/mL
- MIC ([6]; Newbould, normal strain): >16 µg/mL

Compound: CN[C@H](CC(C)C)C(=O)N[C@H]1C(=O)N[C@@H](CC(N)=O)C(=O)N[C@H]2C(=O)N[C@H]3C(=O)N[C@H](C(=O)N[C@H](C(=O)O)c4cc(O)cc(O)c4-c4cc3ccc4O)[C@H](O)c3ccc(c(Cl)c3)Oc3cc2cc(c3O[C@@H]2O[C@H](CO)[C@@H](O)[C@H](O)[C@H]2O[C@H]2C[C@](C)(N)[C@H](O)[C@H](C)O2)Oc2ccc(cc2Cl)[C@H]1O [Vancomycin, vancomycin]
- MIC (S. aureus CF9A-L): 1 µg/mL (≈ 0.69 µM)
- MIC (S. aureus Newbould): 0.5 to 1 µg/mL (≈ 0.345 to 0.69 µM)
- MIC ([1]; Staphylococcus aureus): 1 to 2 µg/mL (≈ 0.69 to 1.38 µM)
- MIC (S. aureus CF2A-L): 1 µg/mL (≈ 0.69 µM)
- MIC (S. aureus SCV CF1D-S; Staphylococcus aureus, SCVCF1DS): 2 µg/mL (≈ 1.38 µM)
- MIC (S. aureus SCV CF07-S; CF07-S + HQNO at 20 μg/ml): 2 µg/mL
- MIC (S. aureus SCV CF07-S; CF07-S, without HQNO): 2 µg/mL (≈ 1.38 µM)
- MIC (S. aureus SCV CF07-S; Staphylococcus aureus, SCVCF07S): 2 µg/mL (≈ 1.38 µM)
- MIC (S. aureus MRSA COL): 2 µg/mL (≈ 1.38 µM)
- MIC (S. aureus 8325-4): 1 µg/mL (≈ 0.69 µM)
- MIC (S. aureus N315): 0.5 µg/mL (≈ 0.345 µM)
- MIC (S. aureus Sa220c): 1 µg/mL (≈ 0.69 µM)
- MIC (S. aureus CF35A-L): 1 µg/mL (≈ 0.69 µM)
- MIC (S. aureus ATCC BAA-41): 1 µg/mL (≈ 0.69 µM)
- incorporation of radiolabeled precursors into the targeted macromolecules [7]: preferentially inhibited
- MIC (S. aureus ATCC 43300): 0.5 to 1 µg/mL (≈ 0.345 to 0.69 µM)
- MIC ([3]; CF07-L + HQNO at 20 μg/ml): 2 µg/mL
- MIC ([3]; CF07-L, without HQNO): 2 µg/mL (≈ 1.38 µM)
- MIC ([3]; Staphylococcus aureus): 2 µg/mL (≈ 1.38 µM)
- MIC ([4]; Staphylococcus aureus): 2 µg/mL (≈ 1.38 µM)
- MIC (S. aureus ATCC 29213 [5]; ATCC 29213 + HQNO at 20 μg/ml): 2 µg/mL
- MIC (S. aureus ATCC 29213 [5]; Staphylococcus aureus, ATCC29213, ATCC 29213, without HQNO): 2 µg/mL (≈ 1.38 µM)
- MIC (S. aureus ATCC 29213 [5]; Staphylococcus aureus, ATCC29213, ATCC 29213 in BHI): 2 µg/mL (≈ 1.38 µM)
- MIC (S. aureus ATCC 29213 [5]; Staphylococcus aureus, ATCC29213, ATCC 29213 in MHBCA): 1 to 2 µg/mL (≈ 0.69 to 1.38 µM)
- Fold (−TO/+TO) (S. aureus ATCC 29213 [8]; ATCC 29213, tomatidine at 8 μg/ml): 1 fold
- MIC (S. aureus ATCC 29213 [8]; ATCC29213): 1 µg/mL (≈ 0.69 µM)
- MIC (S. aureus ATCC 29213 [8]; ATCC29213, read-out: MIC −TO): 1 µg/mL (≈ 0.69 µM)
- MIC (S. aureus CF7A-L): 1 µg/mL (≈ 0.69 µM)
- MIC (S. aureus Newman): 1 µg/mL (≈ 0.69 µM)
- MIC (S. aureus ATCC 29213 [9]): 0.5 to 1 µg/mL (≈ 0.345 to 0.69 µM)
- MIC (S. aureus CF4B-L): 1 µg/mL (≈ 0.69 µM)
- MIC ([6]; Staphylococcus aureus): 1 µg/mL (≈ 0.69 µM)
- MIC (S. aureus CF8E-L): 1 to 2 µg/mL (≈ 0.69 to 1.38 µM)
- MIC (S. aureus Sa228c): 1 µg/mL (≈ 0.69 µM)
- MIC (S. aureus CF6B-L): 0.5 to 1 µg/mL (≈ 0.345 to 0.69 µM)
- MIC (S. aureus MA078038): 0.5 to 1 µg/mL (≈ 0.345 to 0.69 µM)
- MIC (S. aureus SHY97-3906): 0.5 to 1 µg/mL (≈ 0.345 to 0.69 µM)
- MIC (S. aureus CF1A-L): 1 µg/mL (≈ 0.69 µM)
- MIC (S. aureus Mu50): 4 µg/mL (≈ 2.76 µM)
- MIC (S. aureus CF07-L): 1 to 2 µg/mL (≈ 0.69 to 1.38 µM)
